In patent US9353120B2, “Tetraaza macrocyclic compound, preparation method thereof and use thereof” (Kyungpook National University Industry-Academic Cooperation …, priority 2009, dated 2016):
Entries after “also recorded” stand apart in the source; their conditions may differ. Read-outs that look alike come from different tables or passages of the source. One block for each molecule: values may come before it.

Tests used:
[1] = Electrochemical studies (cyclic voltammetry); type: physicochemical; conditions: pH 7.0, scan rate 100 mV/s; for reversibility of redox reaction: cyclic voltammogram
Procedure: Cyclic voltammetry was conducted using Biologic model SP-150 with three-electrode configuration. The system consisted of a glassy carbon (diameter=3 mm) as a working electrode, an Ag/AgCl (sat. KCl) reference electrode, and a Pt wire counter electrode. Samples were run in 0.1 M aqueous […] adjusted to pH 7.0 with glacial […] at scan rate 100 mV/s. The solutions were deoxygenated for 30 minutes with argon (Ar) prior to use and kept under Ar atmosphere during measurement.

[2] = in vivo
[3] = Kinetic inertness via acid decomplexation (radio-TLC); type: physicochemical; conditions: 5 M and 10 M HCl, 90° C., radio-TLC at 6, 30 and 60 minutes
Procedure: Acid decomplexation of ^64Cu-PCB-TE2A was tested by adding 20 μL of ^64Cu-PCB-TE2A (1-2 mM, 52 μCi) to 100 μL of 5 M and 10 M HCl. The solution was heated at 90° C., and samples were analyzed by radio-TLC at 6, 30 and 60 minutes post-addition to 5 M and 10 M HCl (FIGS. 10-15).

[4] = In vitro serum stability; type: in vitro ADME, bovine; conditions: FBS, 37° C., radio-TLC up to 24 hours, then 50° C. for 1 hour
Procedure: In vitro serum stability of ^64Cu-PCB-TE2A was tested by adding 20 μL of ^64Cu-PCB-TE2A (1-2 mM, 50 μCi) to 0.5 mL of fetal bovine serum (FBS). The solution was incubated at 37° C., and samples were analyzed by radio-TLC at 10, 30 and 60 minutes and at 2, 4, 10 and 24 hours post-addition to FBS (FIGS. 16-22). After 24 hours, the solution was incubated at 50° C. for 1 hour and once again samples were analyzed by radio-TLC (FIG. 23).

[5] = Rat biodistribution of 64Cu complexes
[6] = in vivo; conditions: female, nude, mouse, iv, 16 uCi, total radioactivity, mean uptake in the tumor
[7] = buffer
[8] = system: U87MG tumors; assay: MicroPET imaging; type: in vivo, female nude mice; conditions: U87MG tumor bearing nude mouse, 1 hour post-injection, 231 μCi
Procedure: PET scans and image analysis were performed using a microPET R4 rodent model scanner. […] At 1 hour after the injection, the mice were anesthetized with 1-2% isoflurane, positioned porne, and imaged. The images were reconstructed by the 2-dimensional ordered-subsets expectation maximum (OSEM) algorithm. No correction was necessary for attenuation or scatter correction.

[9] = Kidney, 24 hours post-injection
[10] = Muscle, 24 hours post-injection
[11] = Spleen, 24 hours post-injection

Molecule: O=C([O-])CN1CCN2CCCN(CC1)CCN(CC(=O)[O-])CC2.[Cu+2] [Cu-PCB-DO2A]
- reversibility of redox reaction [1]: irreversible redox reaction
- reversibility of redox reaction ([1]; listed as CU-PCB-DO2A): irrev
- Ered(V) vs Ag/AgCl (reduction potential) [1]: −0.69 V

Molecule: O=C(O)CN1CCCN2CCCN(CCCN(CC(=O)O)CC2)CC1 [PCB-TE2A, 4,11-bis(carboxymethyl)-1,4,8,11-tetraazabicyclo[6.6.3]heptadecane]
- Blood (rat biodistribution, cross-bridged and non-cross-bridged chelators) ([2]; Sprague-Dawley, 24 h): 0.012±0.004 % ID/organ
- Kidney (rat biodistribution, cross-bridged and non-cross-bridged chelators) ([2]; Sprague-Dawley, 24 h): 0.064±0.009 % ID/organ
- Liver (rat biodistribution, cross-bridged and non-cross-bridged chelators) ([2]; Sprague-Dawley, 24 h): 0.142±0.004 % ID/organ

Molecule: O=C([O-])CN1CCN2CCCN(CC1)CCN(CC(=O)[O-])CC2.[64Cu+2] [^64Cu-PCB-DO2A]
- clearance from the blood, liver and kidneys ([2]; rat): quickly cleared

Molecule: O=C([O-])CN1CCCN2CCCN(CCCN(CC(=O)[O-])CC2)CC1.[64Cu+2] [^64Cu-PCB-TE2A]
- kinetic inertness towards acid decomplexation [3]: unusually high kinetic inertness towards acid decomplexation
- in vitro serum stability [4]: intact in the FBS for 24 hours without degradation
- % ID/g ([5]; Blood, 4 hours post-injection): 0.013 ± 0.003 % ID/g
- % ID/organ ([5]; Blood, 4 hours post-injection): 0.192 ± 0.048 % ID/organ
- % ID/g ([5]; Blood, 24 hours post-injection): 0.006 ± 0.001 % ID/g
- % ID/organ ([5]; Blood, 24 hours post-injection): 0.108 ± 0.029 % ID/organ
- % ID/g ([5]; Bone, 4 hours post-injection): 0.030 ± 0.004 % ID/g
- % ID/organ ([5]; Bone, 4 hours post-injection): 0.656 ± 0.110 % ID/organ
- % ID/g ([5]; Bone, 24 hours post-injection): 0.020 ± 0.005 % ID/g
- % ID/organ ([5]; Bone, 24 hours post-injection): 0.569 ± 0.181 % ID/organ
- % ID/g ([5]; Fat, 4 hours post-injection): 0.060 ± 0.013 % ID/g
- % ID/organ ([5]; Fat, 4 hours post-injection): 1.686 ± 0.322 % ID/organ
- % ID/g ([5]; Fat, 24 hours post-injection): 0.036 ± 0.005 % ID/g
- % ID/organ ([5]; Fat, 24 hours post-injection): 1.328 ± 0.311 % ID/organ
- % ID/g ([5]; Heart, 4 hours post-injection): 0.015 ± 0.001 % ID/g
- % ID/organ ([5]; Heart, 4 hours post-injection): 0.011 ± 0.000 % ID/organ
- % ID/g ([5]; Heart, 24 hours post-injection): 0.007 ± 0.002 % ID/g
- % ID/organ ([5]; Heart, 24 hours post-injection): 0.006 ± 0.001 % ID/organ
- % ID/g ([5]; Kidney, 4 hours post-injection): 0.421 ± 0.019 % ID/g
- % ID/organ ([5]; Kidney, 4 hours post-injection): 0.794 ± 0.056 % ID/organ
- % ID/g [5, 9]: 0.049 ± 0.007 % ID/g
- % ID/organ [5, 9]: 0.112 ± 0.011 % ID/organ
- % ID/g ([5]; Liver, 4 hours post-injection): 0.213 ± 0.032 % ID/g
- % ID/organ ([5]; Liver, 4 hours post-injection): 1.679 ± 0.241 % ID/organ
- % ID/g ([5]; Liver, 24 hours post-injection): 0.015 ± 0.001 % ID/g
- % ID/organ ([5]; Liver, 24 hours post-injection): 0.122 ± 0.013 % ID/organ
- % ID/g ([5]; Lungs, 4 hours post-injection): 0.022 ± 0.003 % ID/g
- % ID/organ ([5]; Lungs, 4 hours post-injection): 0.022 ± 0.003 % ID/organ
- % ID/g ([5]; Lungs, 24 hours post-injection): 0.013 ± 0.002 % ID/g
- % ID/organ ([5]; Lungs, 24 hours post-injection): 0.015 ± 0.003 % ID/organ
- % ID/g ([5]; Muscle, 4 hours post-injection): 0.033 ± 0.006 % ID/g
- % ID/organ ([5]; Muscle, 4 hours post-injection): 2.743 ± 0.525 % ID/organ
- % ID/g [5, 10]: 0.018 ± 0.006 % ID/g
- % ID/organ [5, 10]: 1.987 ± 0.703 % ID/organ
- % ID/g ([5]; Spleen, 4 hours post-injection): 0.025 ± 0.006 % ID/g
- % ID/organ ([5]; Spleen, 4 hours post-injection): 0.013 ± 0.004 % ID/organ
- % ID/g [5, 11]: 0.015 ± 0.009 % ID/g
- % ID/organ [5, 11]: 0.009 ± 0.004 % ID/organ
- % ID/g ([5]; Tail, 4 hours post-injection): 0.046 ± 0.039 % ID/g
- % ID/organ ([5]; Tail, 4 hours post-injection): 0.252 ± 0.213 % ID/organ
- % ID/g ([5]; Tail, 24 hours post-injection): 0.039 ± 0.014 % ID/g
- % ID/organ ([5]; Tail, 24 hours post-injection): 0.276 ± 0.115 % ID/organ
- clearance from the blood, liver and kidneys ([5]; words): lowest amount of ^64Cu remaining in the blood and these tissues

Molecule: N=C(N)NCCC[C@@H]1NC(=O)[C@H](CCCCNC(=S)Nc2ccc(CC3CN4CCCN(CC(=O)O)CCN(CCCN(CC(=O)O)CC4)C3)cc2)NC(=O)[C@@H](Cc2ccc(O)cc2)NC(=O)[C@H](CC(=O)O)NC(=O)CNC1=O (stereo partly shown) [metal not drawn]
- tissue uptake at 1 h [6]: 4.76 %ID/g

- Ered(V) vs Ag/AgCl (reduction potential) [1]: −0.66 V
- Half-life for acid decomplexation, 5M HCl, 90° C. [7]: 231(2)h
Molecule: Cu-PCB-TE2A
- reversibility of redox reaction [1]: quasi-reversible redox reaction; also recorded: qitasi-rev

Molecule: ^64Cu-PCB-TE2A-c(RGDyK)
- radiation uptake in the tumors (microPET) [8]: very high in the tumors as compared to other organs
